Measurements taken from patent US10899763B2, “Crystalline forms of salts of fused penta-cyclic dihydrodiazepinocarbazolones, and uses thereof” (BEIGENE, LTD., priority 2017, dated 2021).
Like-named read-outs stand apart in the source and are kept apart here.

Experiments:
[1] = Solid form change on heating (XRPD, VT-XRPD); type: physicochemical
Experimental: Associated with the results of TGA/DSC and solution NMR, Form B was confirmed to be an anhydrate.
To confirm the form change during heating of Form C2, VT-XRPD was conducted under protection of nitrogen.

[2] = Solid-state stability test; type: physicochemical; details: HPLC
Experimental: Each sample (Forms A, B or C2) was exposed to both conditions of 25° C./60% RH and 40° C./75% RH. After one-week storage, all the samples were characterized by XRPD to test any solid form change and by HPLC to check the purity change.

[3] = Hygroscopicity test (DVS isotherm, XRPD); type: physicochemical; details: for Water uptake % at 80% RH, Adsorption / Water uptake % at 80% RH, Desorption: DVS at 25° C.; for Hygroscopicity: concluded from the water uptake from adsorption cycle
Experimental: To investigate the solid form stability as a function of humidity, DVS isotherm plot (at 25° C.) and XRPD pattern were collected, see Table 11. The uptake percentage differences between desorption and adsorption are speculated to be related to the replacement of possible residual solvent with moisture.

[4] = Kinetic solubility test in bio-relevant media and H2O; type: physicochemical; details: for dissolution profile in bio-relevant media (FaSSIF and FeSSIF): sampled at 1 hr, 4 hrs and 24 hrs; for dissolution profile in bio-relevant media (FaSSIF and FeSSIF) / solubility: RT; for solubility: thermodynamic from solid
Experimental: About 20 mg of each sample (Forms A, B or C2) was equilibrated in 3.0 mL of three bio-relevant media, i.e., fasted state small intestinal fluid (FaSSIF), Fed State Simulating Intestinal Fluid (FeSSIF) and Simulated Gastric Fluid (SGF), or H2O into each 4-mL plastic vial. The suspensions were mixed via triturating (25 rpm) at RT, with each suspension sampled at the end of 1 hr, 4 hrs and 24 hrs, respectively.

[5] = Phase I clinical safety study; type: in vivo; details: capsules, 2.5-120 mg bid, 25 subjects
[6] = system: MDA-MB-436 (BRCA1 Deficient); assay: Synthetic lethality, CellTiter-Glo cell viability, MDA-MB-436; type: cell-based, human; details: 7-day exposure, table, read-out: EC50 for growth inhibition
Experimental: (§1) MDA-MB-231 cells that is not BRCA gene mutant or other homologous recombination deficient were maintained in DMEM supplemented with fetal bovine serum (10% FBS), 100 units/ml penicillin and 0.1 mg/ml streptomycin. BRCA1-deficient cell line MDA-MB-436 was maintained in RPMI-1640 supplemented with 10% FBS, 100 units/ml penicillin and 0.1 mg/ml streptomycin. Both two cell lines were kept at 95% humidity and 5% CO2 in a 37° C. incubator.
(§2) The number of tumor cells seeded per well of a 96-well plate was optimized for each cell line to ensure logarithmic growth over the 7 days treatment period. Cells were left to attach for 16 hours and then treated with specific concentrations of test compounds. Following a 7-day exposure to the compound, the growth-inhibitory activity of compounds was determined using CellTiter-Glo luminescent cell viability assay (Promega). Luminescent signal was measured using PHERAstar FS reader (BMG Labtech). Cell viability was expressed as relative to mock treatment control. EC50 values for growth inhibition were calculated by fitting dose-dependent data to the four-parameter logistic model using XLfit software.

[7] = system: intracellular PARP activity in HeLa cells; assay: Intracellular target inhibition: cellular PAR formation in hydrogen peroxide treated HeLa cells; type: cell-based; details: read-out: IC50 (nM) in PARylation assay
Experimental: The assay was performed as follows:
Cells were plated into a 96-well plate with clear bottom and black wall at a density of 5000 cells per well (100 μL). […] In the following day, H2O2 solution in PBS (final concentration 200 μM) was added and the plate was kept at 37° C. for 5 minutes. Then the medium was gently removed by plate inversion, and the cells were fixed by ice-cold MeOH at −20° C. for 20 minutes. […] After removal of solution and repeated wash with PBS, the PAR polymer level was estimated by ArrayScan VTI (ThermoFisher). Percent inhibition was determined on the basis of the residual enzyme activity in the presence of increasing PARP inhibitor concentration. IC50 values were calculated by fitting dose-dependent data to the four-parameter logistic model using XLfit software.

MDA-MB-231 cells = assay: Synthetic lethality, CellTiter-Glo cell viability, MDA-MB-231; type: cell-based; details: MDA-MB-231, 7-day exposure, table; read-out: EC50 for growth inhibition
Experimental: as §1, §2

[8] = FaSSIF, read-out: solubility in FaSSIF
[9] = FeSSIF, read-out: solubility in FeSSIF

## C[C@]12CCCN1CC1=NNC(=O)c3cc(F)cc4[nH]c2c1c34.O=C(O)/C=C/C(=O)O [Form C3]
[1]; ~25° C./70% RH
  time to convert back to Form C2 after exposure to ambient conditions: ≤ 1 h

## C[C@]12CCCN1CC1=NNC(=O)c3cc(F)cc4[nH]c2c1c34 [Form A]
[2]; 25° C./60% RH (7 days)
  Purity of initial(%): 100.1%
[2]; 40° C./75% RH (7 days)
  Purity of initial(%): 100.1%
[3]
  Water uptake % at 80% RH, Adsorption: 1.9%
  Water uptake % at 80% RH, Desorption: 2.1%
  Hygroscopicity: Hygroscopic
[1]; heated to 170° C.
  form change after heating and cooling at ambient conditions (XRPD): No form change
[4]
  dissolution profile in bio-relevant media (FaSSIF and FeSSIF): good solubility was observed in FaSSIF and FeSSIF at the first time point, but the values went down after equilibrated for a longer time
[4]; listed as phosphate salt of Compound 1
  dissolution profile in bio-relevant media (FaSSIF and FeSSIF): higher solubility at the first time point, but the values went down after equilibrated for a longer time

## C[C@]12CCCN1CC1=NNC(=O)c3cc(F)cc4[nH]c2c1c34.O=C(O)/C=C\C(=O)O [Form B]
[2]; 25° C./60% RH (7 days)
  Purity of initial(%): 100.2%
[2]; 40° C./75% RH (7 days)
  Purity of initial(%): 100.1%
[3]
  Water uptake % at 80% RH, Adsorption: 0.7%
  Water uptake % at 80% RH, Desorption: 2.4%
  Hygroscopicity: Slightly hygroscopic
[1]; heated to 150° C.
  form change after heating and cooling at ambient conditions (XRPD): No form change
[4]
  dissolution profile in bio-relevant media (FaSSIF and FeSSIF): Steady dissolution rate
[4]; listed as maleate salt of Compound 1
  dissolution profile in bio-relevant media (FaSSIF and FeSSIF): steady dissolution profiles
[4]; [8]
  solubility: ~200 µg/mL
[4]; [9]
  solubility: ~500 µg/mL
[4]; up to 24 hours
  physical stability of the solid suspended in the media: physically stable

## C[C@]12CCCN1CC1=NNC(=O)c3cc(F)cc4[nH]c2c1c34 [Crystalline Sesqui-Hydrate of Compound 1]
[5]
  clinical safety and tolerability: safe and well tolerated
[4]; [8]
  solubility: < 100 µg/mL
[4]; [9]
  solubility: 1000 µg/mL

## C[C@]1(c2nc3c(C(N)=O)cccc3[nH]2)CCCN1 [Veliparib]
[6]
  EC50: 820 ± 300 nM
[7]
  IC50: 2.66 nM
MDA-MB-231 cells
  EC50: > 10000 nM

## C[C@]12CCCN1CC1=NNC(=O)c3cc(F)cc4[nH]c2c1c34.O=C(O)/C=C/C(=O)O [Form C2]
[2]; 25° C./60% RH (7 days)
  Purity of initial(%): 100.2%
[2]; 40° C./75% RH (7 days)
  Purity of initial(%): 100.0%
[3]
  Water uptake % at 80% RH, Adsorption: 0.2%
  Water uptake % at 80% RH, Desorption: 0.3%
  Hygroscopicity: Slightly hygroscopic
[1]; ambient conditions
  physical stability at ambient conditions: good physical stability
[1]; heating to 140° C. and cooling back to 30° C. with N2 flow
  form change during heating (VT-XRPD): a new form named as Form C3 was observed
[4]
  dissolution profile in bio-relevant media (FaSSIF and FeSSIF): good solubility was observed in FaSSIF and FeSSIF at the first time point, but the values went down after equilibrated for a longer time
[4]; listed as fumarate salt of Compound 1
  dissolution profile in bio-relevant media (FaSSIF and FeSSIF): higher solubility at the first time point, but the values went down after equilibrated for a longer time

## O=C(c1cc(Cc2n[nH]c(=O)c3ccccc23)ccc1F)N1CCN(C(=O)C2CC2)CC1 [Olaparib]
[6]
  EC50: 21 ± 7 nM
MDA-MB-231 cells
  EC50: ~5000 nM
